From patent publication US7521062B2, “Thiosemicarbazones as anti-virals and immunopotentiators” (Novartis Vaccines & Diagnostics, Inc., priority 2002, dated 2009)

Experiments:
[1] = system: TNF-alpha production by human PBMC; test: TNF-alpha production by human PBMC (ELISA); type: cell-based; details: for TNFa production: cytokine secretion of hPBMC after stimulation with thiosemicarbazone compounds; for SMIP activity (cytokine induction, TNF-alpha and IL-12 p40, % of LPS activity): human PBMC, 5 μM, FIG. 4
Description: Candidate small molecule immuno-potentiators can be identified in vitro. Compounds are screened in vitro for their ability to stimulate human peripheral blood mononuclear cells to produce cytokines (e.g. TNF-alpha and IL-12 p40). HCV antivirals were identified having this activity. These small molecule immuno-potentiators have potential utility as adjuvants and immuno-therapeutics.
TNF-alpha production by human PBMC was measured using a commercial ELISA from supernatants of cells stimulated with the indicated compounds for 18 to 24 hours All test compounds were used at a final concentration of 5 μM/ml. Untreated PBMC (Cells) and LPS (0.1 ng/ml), CPG (10 ng/ml) and/or ALTTE (5 μM/ml) treated PBMC served as negative and positive controls, respectively.
Table 2. Cytokine secretion of hPBMC after stimulation with thiosemicarbazone compounds.
High Throughput Screening (ITS) for small molecule immune potentiators; SMIPs: Attention is drawn to FIG. 3. Various compounds were evaluated for their ability to produce cytokines in response to the small molecule compounds using a modified sandwich ELISA. Compounds are screened for their TNF inducing. “Hits” are selected based on their TNF-inducing activity relative to an optimal dose a strong TNF inducer. The robustness of the assay and low backgrounds have allowed for the routine selection of hits with ˜10% of this activity which is normally between 5-10× background (cells alone). Selected hits are then subjected to confirmation for their ability to induce cytokines from multiple donors at decreasing concentrations. Those compounds with consistent activity at or below 5 μM are considered confirmed.
Thiosemicarbazones compounds with and without anti-HCV activity were screened for their capacity to activate immune cells. Structural analogs of this scaffold have been tested for their ability to induce cytokines from human PBMC and murine splenocytes. […] All compounds were tested at a final concentration of 5 μM except for poly I:C (PIC) and the 1806 oligodinucleotide (CpG) which were used at 10 μg/ml and 10 ng/ml respectively.

[2] = system: HCV replicon RNA in Huh-11-7 or Huh 9-13 cells; test: HCV replicon cell based assay (quantification of HCV replicon RNA by RT-PCR, normalized to GAPDH); details: separate/independent assays
Description: Quantification of HCV replicon RNA in Cell Lines (HCV Cell Based Assay):
Cell lines, including Huh-11-7 or Huh 9-13, harboring HCV replicons (Lohmann, et al Science 285:110-113, 1999) are seeded at 5×10^3 cells/well in 96 well plates and fed media containing DMEM (high glucose), 10% fetal calf serum, penicillin-streptomycin and non-essential amino acids. Cells are incubated in a 5% CO2 incubator at 37° C. At the end of the incubation period, total RNA is extracted and purified from cells using Qiagen Rneasy 96 Kit (Catalog No. 74182). To amplify the HCV RNA so that sufficient material can be detected by an HCV specific probe (below), primers specific for HCV (below) mediate both the reverse transcription (RT) of the HCV RNA and the amplification of the cDNA by polymerase chain reaction (PCR) using the TaqMan One-Step RT-PCR Master Mix Kit (Applied Biosystems catalog no. 4309169). […]
Detection of the RT-PCR product was accomplished using the Applied Biosystem (ABI) Prism 7700 Sequence Detection System (SDS) that detects the fluorescence that is emitted when the probe, which is labeled with a fluorescence reporter dye and a quencher dye, is processed during the PCR reaction. The increase in the amount of fluorescence is measured during each cycle of PCR and reflects the increasing amount of RT-PCR product. […] The data is analyzed using the ABI SDS program version 1.7. […]

Compound	TNFa production [1] [ng/10^6 cells/ml]	anti-HCV activity [2]	SMIP activity (cytokine induction, TNF-alpha and IL-12 p40, % of LPS activity) [1]
NC(=S)N/N=C/c1ccc(NCCc2ccc(Cl)cc2)c([N+](=O)[O-])c1 [Example 87, 4-{[2-(4-chlorophenyl)ethyl]amino}-3-nitrobenzaldehydethiosemicarbazone]	1.25	–	–
Cc1ccc2c(c1)c1c(n2C)/C(=N/NC(N)=S)CCC1 [Example 115, (1E)-6,9-dimethyl-2,3,4,9-tetrahydro-1H-carbazol-1-onethiosemicarbazone]	1.25	–	–
CCN(CC)c1ccc(/C=N/NC(N)=S)c(OCc2ccc(Cl)cc2)c1 [Example 29, 2-{[(4-chlorophenyl)methyl]oxy}-4-(diethylamino)benzaldehydethiosemicarbazone]	–	possess both SMIP and anti-HCV activity	possess both SMIP and anti-HCV activity
COc1cc(/C=N/NC(N)=S)cc(Br)c1OCc1ccccc1F [Example 39, 3-bromo-4-{[(2-fluorophenyl)methyl]oxy}-5-(methyloxy)benzaldehydethiosemicarbazone]	5	–	–
NC(=S)N/N=C/c1ccccn1 [Example 113, pyridine-2-carbaldehydethiosemicarbazone]	2.34	weak or absent anti-HCV effects	potent SMIP activity
C/C(=N\NC(N)=S)c1sc(-c2ncc(C(F)(F)F)cc2Cl)nc1C [Example 114]	1.7	–	–
NC(=S)N/N=C/c1ccc(-c2cccc(Cl)c2)o1 [Example 12, 5-(3-chlorophenyl)furan-2-carbaldehyde thiosemicarbazone]	2.32	–	–
NC(=S)N/N=C/c1ccc(NCCc2cccc(Cl)c2)c([N+](=O)[O-])c1 [Example 86, 4-{[2-(3-chlorophenyl)ethyl]amino}-3-nitrobenzaldehydethiosemicarbazone]	5	–	–
NC(=S)N/N=C/c1cccc(OCc2ccccc2)c1 [Example 7, 3-[(phenylmethyl)oxy]benzaldehydethiosemicarbazone]	0	–	–
